Measured values as given in patent US6579851B2, “Effects of glucagon-like peptide-1 (7-36) on antro-pyloro-duodenal motility” (Amylin Pharmaceuticals, Inc., priority 2000, dated 2003).
Marks after values point to notes of the source that are not given here.

What was measured:
Format in all cases: in vivo, human
[1] = Plasma glucagon immunoreactivity during intravenous GLP-1 infusion
Method: (§1) All values were expressed as mean±SEM. […] Differences were considered significant at P<0.05.
(§2) All studies were performed after an overnight fast.
(§3) The plasma was stored at −20° C. until assayed.

[2] = Plasma pancreatic polypeptide immunoreactivity during intravenous GLP-1 infusion
Method: as §1, §2, §3

[3] = test system: pyloric motility; test: Pyloric motility (IPPW, pyloric tone) and duodenal phase III by perfusion manometry; details: for Volunteers with duodenal phase III: within 10 min after GLP-1 infusion; for Pyloric Motility IPPW: actual values; for Pyloric tone: values over basal
Method: (§4) Inhibition of antro-duodenal activity is assessed directly by motility recordings using methods that are well known to the skilled artisan. Contractile events are analyzed with a computer and validated software (Katschinski et al., Gastroenterol. 103, 383-91 (1992)) and only peaks with amplitudes of at least 10 mmHg and a duration of at least 2 s are considered true contractions. Duodenal phase III is defined as the occurrence of regular contractions at a frequency of ≧10/min for at least 2 min in the duodenum propagated aborally.
As used herein, “inhibition” of antro-pyloro-duodenal motility is defined as a reduction in the motility index. Other methods for measuring motility can be used. One of skill in the art will appreciate that a significant inhibition, including total inhibition, of motility will be useful.
The present invention also relates to therapeutic methods associated with stimulating pyloric motility. Two parameters used to describe pyloric motility are: 1) Isolated pyloric pressure waves (IPPW), defined as contractions registered by the sleeve with or without simultaneous contractions in maximally one sleeve-side-hole in the absence of associated (±3 sec) waves of any amplitude in the adjacent antral and duodenal side-holes and 2) pyloric tone. Pyloric tone is measured by deducting the basal pressure recorded by the antral side hole at the proximal end of the sleeve, from the basal pressure recorded by the sleeve. Basal pressures is defined as the mean pressure after excluding contractions; it is obtained each minute and used to calculate mean pyloric tone.
as §1, §2
(§5) Perfusion manometry was recorded using a nine-lumen duodenal sleeve/side-hole catheter (Dentsleeve, South Australia, Australia). The manometric assembly incorporated a 4.5 cm long sleeve sensor, two antral side-holes (2 cm apart), and three duodenal side-holes (2 cm apart), beginning at the proximal and distal end of the sleeve, respectively. Two more side-holes were positioned across the sleeve spaced 1.5 cm apart. An additional lumen located 12 cm distal to the sleeve sensor was used for duodenal perfusion.
(§6) The correct position of the duodenal probe with the sleeve array straddling the pylorus was fluoroscopically checked before start of each experiment, and monitored throughout each study by measuring the transmucosal potential difference at the distal antral and the proximal duodenal port, as previously described (Schirra et al. J Clin Invest 97, 92-103 (1996)). A difference of at least −15 mV indicated correct transpyloric position of the tube.
(§7) The motility channels were perfused at a rate of 0.3 ml/min using a low-compliance pneumohydraulic pump (Arndorfer Medical Specialists, Greendale, Wis.). Pressures were measured by external transducers. Data were simultaneously recorded on the screen of a multichannel chart system (PC Polygraph, Synectics Medical, Stockholm, Sweden) and stored in the memory of a personal computer. Data were sampled and digitized at 8 Hz followed by digital smoothing by a factor of 2.

[4] = Plasma glucose during intravenous GLP-1 infusion (glucose oxidase method); details: for Nadir of plasma glucose: at 20 min
Method: as §1, §2, §3

[5] = test system: antro-duodenal motility; test: Antro-duodenal motility by perfusion manometry; details: for Duodenal Motility Contractions: sum of three duodenal side holes; for Antral Motility Contractions: sum of two antral side holes
Method: as §4
In one embodiment, the data are analyzed in 10-min segments separately for antrum and duodenum by summarizing (frequency, motility index) or averaging (amplitude) the values derived from, the two antral and three duodenal side holes, respectively. Motility indexes are identified as the area under the contractions and are expressed in mmHg·s·min^−1. Antral contractions are determined to be antro-pyloro-duodenally propagated waves if the onset of the pressure wave recorded in the most proximal duodenal side hole, occurs within 5 sec after the onset of a pressure wave recorded in one of the antral side holes and if both wave are registered by all side holes in between.
as §2, §5, §6, §7

[6] = intraduodenal lipid, high dose 1.2 pmol·kg−1·min−1 iv.
[7] = intraduodenal lipid, low dose 0.4 pmol·kg−1·min−1 iv.
[8] = intraduodenal saline, high dose 1.2 pmol·kg−1·min−1 iv.
[9] = intraduodenal saline, low dose 0.4 pmol·kg−1·min−1 iv.
[10] = low dose GLP-1, interdigestive state
[11] = low dose GLP-1, interdigestive, duodenal saline

CC[C@H](C)[C@H](NC(=O)[C@H](Cc1ccccc1)NC(=O)[C@H](CCC(=O)O)NC(=O)[C@H](CCCCN)NC(=O)[C@H](C)NC(=O)[C@H](C)NC(=O)[C@H](CCC(N)=O)NC(=O)CNC(=O)[C@H](CCC(=O)O)NC(=O)[C@H](CC(C)C)NC(=O)[C@H](Cc1ccc(O)cc1)NC(=O)[C@H](CO)NC(=O)[C@H](CO)NC(=O)[C@@H](NC(=O)[C@H](CC(=O)O)NC(=O)[C@H](CO)NC(=O)[C@@H](NC(=O)[C@H](Cc1ccccc1)NC(=O)[C@@H](NC(=O)CNC(=O)[C@H](CCC(=O)O)NC(=O)[C@H](C)NC(=O)[C@@H](N)Cc1c[nH]cn1)[C@@H](C)O)[C@@H](C)O)C(C)C)C(=O)N[C@@H](C)C(=O)N[C@@H](Cc1c[nH]c2ccccc12)C(=O)N[C@@H](CC(C)C)C(=O)N[C@H](C(=O)N[C@@H](CCCCN)C(=O)NCC(=O)N[C@@H](CCCNC(=N)N)C(N)=O)C(C)C [GLP-1, glucagon-like peptide-1(7-36)amide]
Glucagon (AUC over basal) [1, 6]: 48.0 ± 33.8*‡∥ pg/ml · 60 min
Glucagon (AUC over basal) [1, 7]: 99.7 ± 25.1*∥ pg/ml · 60 min
Glucagon (AUC over basal) [1, 8]: −68.6 ± 28.9 pg/ml · 60 min
Glucagon (AUC over basal) [1, 9]: −59.0 ± 37.1 pg/ml · 60 min
Pancreatic polypeptide (AUC over basal) [2, 6]: −104.2 ± 71.1 pg/ml · 60 min
Pancreatic polypeptide (AUC over basal) [2, 7]: 7.7 ± 55.4*∥ pg/ml · 60 min
Pancreatic polypeptide (AUC over basal) [2, 8]: −128.9 ± 33.2 pg/ml · 60 min
Pancreatic polypeptide (AUC over basal) [2, 9]: −90.5 ± 32.7 pg/ml · 60 min
Subjects with duodenal phases III ([3]; GLP-1 infusion in conjunction with lipid perfusion): two out of 11
Volunteers with duodenal phase III ([3]; high dose GLP-1, interdigestive state): five
Pyloric Motility IPPW [3, 6]: 15.5 ± 2.1 number/10 min
Pyloric tone [3, 6]: 8.6 ± 1.0 mmHg
Pyloric Motility IPPW [3, 7]: 15.7 ± 2.5 number/10 min
Pyloric tone [3, 7]: 7.4 ± 1.0 mmHg
Pyloric Motility IPPW [3, 8]: 8.6 ± 1.3 number/10 min
Pyloric tone [3, 8]: 7.3 ± 1.5 mmHg
Pyloric Motility IPPW [3, 9]: 10.1 ± 1.9 number/10 min
Pyloric tone [3, 9]: 5.3 ± 0.9 mmHg
Time until increase of pyloric tone was fully established [3, 10]: ≤ 20 min
Time until increase of pyloric tone was significant [3, 10]: ≤ 10 min
Volunteers with duodenal phase III [3, 10]: seven out of 11
Nadir of plasma glucose ([4]; high dose GLP-1): 3.64 ± 0.14 mmol/L
Plasma glucose (AUC over basal) [4, 6]: −4.5 ± 0.7*∥ mmol/l · 60 min
Plasma glucose (AUC over basal) [4, 7]: −4.7 ± 0.5*∥ mmol/l · 60 min
Plasma glucose (AUC over basal) [4, 8]: −2.5 ± 0.4 mmol/l · 60 min
Plasma glucose (AUC over basal) [4, 9]: −2.3 ± 0.3 mmol/l · 60 min
Nadir of plasma glucose ([4]; low dose GLP-1): 3.58 ± 0.12 mmol/L
Antral Amplitude [5, 6]: 23.0 ± 2.7 mmHg
Antral Motility Index [5, 6]: 628 ± 249 mmHg*s/60 min
Duodenal Amplitude [5, 6]: 19.2 ± 3.1 mmHg
Duodenal Motility Index [5, 6]: 1174 ± 499 mmHg*s/60 min
Duodenal Motility Contractions [5, 6]: 16.6 ± 5.9 number / 60 min
Antral Motility Contractions [5, 6]: 9.2 ± 2.9 number / 60 min
Antral Amplitude [5, 7]: 23.6 ± 3.1 mmHg
Antral Motility Index [5, 7]: 880 ± 351 mmHg*s/60 min
Duodenal Amplitude [5, 7]: 26.0 ± 3.3 mmHg
Duodenal Motility Index [5, 7]: 2776 ± 890 mmHg*s/60 min
Duodenal Motility Contractions [5, 7]: 29.5 ± 5.8 number / 60 min
Antral Motility Contractions [5, 7]: 12.1 ± 4.1 number / 60 min
Antral Amplitude [5, 8]: 21.1 ± 3.1 mmHg
Antral Motility Index [5, 8]: 957 ± 322 mmHg*s/60 min
Antro-Pyloro-Duodenal Propagated Contractions [5, 8]: 0.0* number/60 min
Duodenal Amplitude [5, 8]: 17.5 ± 1.9 mmHg
Duodenal Motility Index [5, 8]: 1119 ± 226 mmHg*s/60 min
Duodenal Motility Contractions [5, 8]: 16.6 ± 3.9 number / 60 min
Antral Motility Contractions [5, 8]: 9.6 ± 2.8 number / 60 min
Antral Amplitude [5, 9]: 31.1 ± 3.1 mmHg
Antral Motility Index [5, 9]: 1478 ± 564 mmHg*s/60 min
Antro-Pyloro-Duodenal Propagated Contractions [5, 9]: 0.0* number/60 min
Duodenal Amplitude [5, 9]: 25.0 ± 2.5 mmHg
Duodenal Motility Index [5, 9]: 3447 ± 1624 mmHg*s/60 min
Duodenal Motility Contractions [5, 9]: 36.0 ± 14.7 number / 60 min
Antral Motility Contractions [5, 9]: 12.6 ± 2.8 number / 60 min
Onset of inhibition of antro-duodenal motility after starting GLP-1 [5, 11]: ≤ 2 min
Time to nearly complete inhibition of antro-duodenal motility [5, 11]: ≤ 20 min
